Experiment [1] has as its target T1, full-length beta-Catenin (Uniprot ID P35222) (Homo sapiens, UniProt P35222).
T1 construct: 10 nM full-length beta-Catenin (Uniprot ID P35222)
T1 sequence (P35222 1-781): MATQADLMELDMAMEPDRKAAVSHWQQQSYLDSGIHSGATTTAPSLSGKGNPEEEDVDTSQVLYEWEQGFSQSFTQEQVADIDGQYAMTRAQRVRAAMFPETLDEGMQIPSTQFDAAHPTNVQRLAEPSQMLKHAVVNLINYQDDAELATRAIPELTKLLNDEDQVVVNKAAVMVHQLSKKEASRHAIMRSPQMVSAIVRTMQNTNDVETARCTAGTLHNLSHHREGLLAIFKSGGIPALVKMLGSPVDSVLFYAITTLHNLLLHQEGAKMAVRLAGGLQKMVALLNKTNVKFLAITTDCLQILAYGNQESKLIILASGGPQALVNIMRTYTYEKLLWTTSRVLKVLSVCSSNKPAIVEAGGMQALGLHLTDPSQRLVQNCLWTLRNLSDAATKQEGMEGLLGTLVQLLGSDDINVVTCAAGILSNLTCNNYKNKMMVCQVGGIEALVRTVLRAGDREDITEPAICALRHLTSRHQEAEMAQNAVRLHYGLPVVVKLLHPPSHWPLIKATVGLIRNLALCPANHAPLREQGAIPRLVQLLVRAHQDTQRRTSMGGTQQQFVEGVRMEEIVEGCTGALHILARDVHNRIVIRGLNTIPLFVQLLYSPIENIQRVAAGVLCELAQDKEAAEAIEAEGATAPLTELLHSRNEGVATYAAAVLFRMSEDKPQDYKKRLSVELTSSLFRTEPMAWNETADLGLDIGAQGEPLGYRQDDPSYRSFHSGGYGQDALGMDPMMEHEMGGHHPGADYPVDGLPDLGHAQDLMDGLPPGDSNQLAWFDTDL
Kind of experiment: Fluorescence polarization IC50 (beta-catenin / 5FAM-TCF4 10-53 competition). The experiment is classed as binding. The settings on record: fluorescence polarization; read-out: beta-Catenin FP IC50. In general terms: In fluorescence polarisation assays a small probe gives low polarisation when free and higher when bound to something large.

The target in experiment [2] is T2, beta-catenin/TCF4 engagement (Homo sapiens, UniProt P35222).
T2 construct: expressed in transfected cells; host or cells: HEK293
T2 sequence (P35222 1-781): T1 sequence (P35222 1-781)
Kind of experiment: Nano-BRET target engagement assay (B-cat-Halo & TCF4-Luc in HEK293 cells). In kind it is cell-based. The note with it: absolute IC50; read-out: NanoBRET Abs IC50. For orientation: In BRET a luciferase serves as donor, and the signal depends on an acceptor being close.

Experiment [3] relates to TCF/LEF luciferase Reporter in DLD1 cells. Briefly: TCF reporter assay (DLD1 TCF/LEF luciferase reporter, Bright-Glo). In kind it is cell-based. The note with it: read-out: DLD1 4% Abs IC50; DLD1 reporter, 4%, absolute IC50. The procedure, abridged:
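DLD1 cells stably carrying a TCF/LEF luciferase reporter were plated at 5000 cells/well in RPMI + 4% FBS and treated overnight with a 1:2 compound dilution series. Bright-Glo luminescence read on day 3; viability by CellTiter-Glo. Absolute IC50 determined.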

As a reminder, the IC50 is the concentration at which inhibition is half-maximal. In the case of `CC(=O)N1CCC[C@]12CC=CCCCC1(CCCC=CCCCOC(=O)N3CC[C@@](C(=O)N[C@@H](Cc4ccsc4)C(=O)N[C@@H](Cc4csc5ccccc45)C(=O)N[C@@H](CC(N)=O)C(=O)N[C@@H](CC(C)C)C(=O)N[C@@H](CC(C)C)C(=O)N[C@@H](CC(C)C)C(N)=O)(C3)NC(=O)[C@H](CC(C)C)NC(=O)[C@H](Cc3ccccc3)NC(=O)[C@H](C)NC(=O)[C@H](C)NC(=O)[C@H](Cc3cccc(C(=O)O)c3)NC(=O)[C@H](CC(=O)O)NC1=O)NC(=O)[C@H](CC(C)(C)C)NC(=O)[C@H](CC(=O)O)NC2=O` (stereo partly drawn) [I-2276, Ac-PL3-Asp-Npg-B5-Asp-3COOHF-Ala-Ala-Phe-Leu-PyrS2-3Thi-BztA-Asn-Leu-Leu-Leu-NH2], the values for the 50% inhibitory concentration (IC50) in experiment [1], in experiment [2] and in experiment [3] were 157 nM, 4000 nM and 3900 nM, respectively.
As to `CC(=O)N1CCC[C@]12CC=CCCCC1(CCCC=CCCCOC(=O)N3CC[C@@](C(=O)N[C@@H](Cc4ccccc4C(F)(F)F)C(=O)N[C@@H](Cc4csc5ccccc45)C(=O)N[C@@H](CO)C(N)=O)(C3)NC(=O)[C@H](CC(C)C)NC(=O)[C@H](Cc3ccccc3)NC(=O)[C@H](C)NC(=O)[C@H](C)NC(=O)[C@H](Cn3cc(C(C)(C)C(=O)O)nn3)NC(=O)[C@H](CC(=O)O)NC1=O)NC(=O)[C@H](CC(C)(C)C)NC(=O)[C@H](CC(=O)O)NC2=O` (stereo partly drawn) [I-2374, Ac-PL3-Asp-Npg-B5-Asp-[CMe2CO2H]TriAzDap-Ala-Ala-Phe-Leu-PyrS2-2F3MeF-BztA-Ser-NH2], the 50% inhibitory concentration (IC50) in experiment [1] worked out at 7 nM; in experiment [2] it was 3400 nM; in experiment [3], 2600 nM.
In the case of `CC(=O)N1CCC[C@]12CC=CCCCC1(CCCC=CCCCOC(=O)N3CC[C@@](C(=O)N[C@@H](Cc4ccccc4C(F)(F)F)C(=O)N[C@@H](Cc4csc5ccccc45)C(=O)N[C@@H](CCC(N)=O)C(=O)N[C@@H](CC(C)C)C(=O)N[C@@H](C)C(N)=O)(C3)NC(=O)[C@H](CC(C)C)NC(=O)[C@H](Cc3ccccc3)NC(=O)[C@H](C)NC(=O)[C@H](C)NC(=O)[C@H](Cc3cccc(C(=O)O)c3)NC(=O)[C@H](CC(=O)O)NC1=O)NC(=O)[C@H](CC(C)(C)C)NC(=O)[C@H](CC(=O)O)NC2=O` (stereo partly drawn) [I-2378, Ac-PL3-Asp-Npg-B5-Asp-3COOHF-Ala-Ala-Phe-Leu-PyrS2-2F3MeF-BztA-Gln-Leu-Ala-NH2], the 50% inhibitory concentration (IC50) in experiment [1] worked out at 31 nM; in experiment [2], 4800 nM; in experiment [3] it was 1000 nM.
For the compound `CC(=O)N1CCC[C@]12CC=CCCCC1(CCCC=CCCCOC(=O)N3CC[C@@](C(=O)N[C@@H](Cc4ccccc4C(F)(F)F)C(=O)N[C@@H](Cc4csc5ccccc45)C(=O)N[C@@H](CCC(N)=O)C(=O)N[C@@H](CC(C)C)C(=O)N[C@@H](CCC(N)=O)C(N)=O)(C3)NC(=O)[C@H](CC(C)C)NC(=O)[C@H](Cc3ccccc3)NC(=O)[C@H](C)NC(=O)[C@H](C)NC(=O)[C@H](Cc3cccc(C(=O)O)c3)NC(=O)[C@H](CC(=O)O)NC1=O)NC(=O)[C@H](CC(C)(C)C)NC(=O)[C@H](CC(=O)O)NC2=O` (stereo partly drawn) [I-2382, Ac-PL3-Asp-Npg-B5-Asp-3COOHF-Ala-Ala-Phe-Leu-PyrS2-2F3MeF-BztA-Gln-Leu-Gln-NH2], the 50% inhibitory concentration (IC50) in experiment [1] came out at 37 nM; in experiment [2] it was 4000 nM; in experiment [3], 7600 nM.
In the case of `CC(=O)N1CCC[C@]12CC=CCCCC1(CCCC=CCCCOC(=O)N3CC[C@@](C(=O)N[C@@H](Cc4ccccc4C(F)(F)F)C(=O)N[C@@H](Cc4csc5ccccc45)C(=O)N[C@@H](CCC(N)=O)C(=O)N[C@@H](CC(C)C)C(=O)N[C@H](C(N)=O)[C@@H](C)O)(C3)NC(=O)[C@H](CC(C)C)NC(=O)[C@H](Cc3ccccc3)NC(=O)[C@H](C)NC(=O)[C@H](C)NC(=O)[C@H](Cc3cccc(C(=O)O)c3)NC(=O)[C@H](CC(=O)O)NC1=O)NC(=O)[C@H](CC(C)(C)C)NC(=O)[C@H](CC(=O)O)NC2=O` (stereo partly drawn) [I-2383, Ac-PL3-Asp-Npg-B5-Asp-3COOHF-Ala-Ala-Phe-Leu-PyrS2-2F3MeF-BztA-Gln-Leu-Thr-NH2], the IC50 in experiment [1] was found to be 77 nM; in experiment [2] it was 4200 nM; in experiment [3] it was 800 nM.
Turning to `CC(=O)N1CCC[C@]12CC=CCCCC1(CCCC=CCCCOC(=O)N3CC[C@@](C(=O)N[C@@H](Cc4ccccc4C(F)(F)F)C(=O)N[C@@H](Cc4csc5ccccc45)C(=O)N[C@@H](CCC(N)=O)C(=O)N[C@@H](CC(C)C)C(=O)N[C@@H](CO)C(N)=O)(C3)NC(=O)[C@H](CC(C)C)NC(=O)[C@H](Cc3ccccc3)NC(=O)[C@H](C)NC(=O)[C@H](C)NC(=O)[C@H](Cc3cccc(C(=O)O)c3)NC(=O)[C@H](CC(=O)O)NC1=O)NC(=O)[C@H](CC(C)(C)C)NC(=O)[C@H](CC(=O)O)NC2=O` (stereo partly drawn) [I-2384, Ac-PL3-Asp-Npg-B5-Asp-3COOHF-Ala-Ala-Phe-Leu-PyrS2-2F3MeF-BztA-Gln-Leu-Ser-NH2], the IC50 in experiment [1] was 5 nM; in experiment [2] it was 4600 nM; in experiment [3], 1100 nM.
For `CC[C@H](C)[C@H](NC(=O)[C@H](CC(C)C)NC(=O)[C@H](CCC(N)=O)NC(=O)[C@H](Cc1csc2ccccc12)NC(=O)[C@H](Cc1ccccc1C(F)(F)F)NC(=O)[C@]12CCN(C1)C(=O)OCCCC=CCCCC1(CCCC=CC[C@]3(CCCN3C(C)=O)C(=O)N[C@@H](CC(=O)O)C(=O)N[C@@H](CC(C)(C)C)C(=O)N1)C(=O)N[C@@H](CC(=O)O)C(=O)N[C@@H](Cc1cccc(C(=O)O)c1)C(=O)N[C@@H](C)C(=O)N[C@@H](C)C(=O)N[C@@H](Cc1ccccc1)C(=O)N[C@@H](CC(C)C)C(=O)N2)C(N)=O` (stereo partly drawn) [I-2385, Ac-PL3-Asp-Npg-B5-Asp-3COOHF-Ala-Ala-Phe-Leu-PyrS2-2F3MeF-BztA-Gln-Leu-Ile-NH2] the same measures were 563 nM, 4000 nM and 1800 nM.
With `CC(=O)N1CCC[C@]12CC=CCCCC1(CCCC=CCCCOC(=O)N3CC[C@@](C(=O)N[C@@H](Cc4ccccc4C(F)(F)F)C(=O)N[C@@H](Cc4csc5ccccc45)C(=O)N[C@@H](CCC(N)=O)C(=O)N[C@@H](CC(C)C)C(=O)NC(C)(C)C(N)=O)(C3)NC(=O)[C@H](CC(C)C)NC(=O)[C@H](Cc3ccccc3)NC(=O)[C@H](C)NC(=O)[C@H](C)NC(=O)[C@H](Cc3cccc(C(=O)O)c3)NC(=O)[C@H](CC(=O)O)NC1=O)NC(=O)[C@H](CC(C)(C)C)NC(=O)[C@H](CC(=O)O)NC2=O` (stereo partly drawn) [I-2386, Ac-PL3-Asp-Npg-B5-Asp-3COOHF-Ala-Ala-Phe-Leu-PyrS2-2F3MeF-BztA-Gln-Leu-Aib-NH2], the IC50 in experiment [1] came out at 75.5 nM; in experiment [2], 2800 nM; in experiment [3], 700 nM.
For `CC(=O)N1CCC[C@]12CC=CCCCC1(CCCC=CCCCOC(=O)N3CC[C@@](C(=O)N[C@@H](Cc4ccccc4C(F)(F)F)C(=O)N[C@@H](Cc4csc5ccccc45)C(=O)N[C@@H](CCC(N)=O)C(=O)N[C@@H](CC(C)C)C(=O)NC4(C(N)=O)CCC4)(C3)NC(=O)[C@H](CC(C)C)NC(=O)[C@H](Cc3ccccc3)NC(=O)[C@H](C)NC(=O)[C@H](C)NC(=O)[C@H](Cc3cccc(C(=O)O)c3)NC(=O)[C@H](CC(=O)O)NC1=O)NC(=O)[C@H](CC(C)(C)C)NC(=O)[C@H](CC(=O)O)NC2=O` (stereo partly drawn) [I-2388, Ac-PL3-Asp-Npg-B5-Asp-3COOHF-Ala-Ala-Phe-Leu-PyrS2-2F3MeF-BztA-Gln-Leu-Cbg-NH2] the same measures were 133 nM, 5700 nM and 1200 nM.
Consider `CC(=O)N1CCC[C@]12CC=CCCCC1(CCCC=CCCCOC(=O)N3CC[C@@](C(=O)N[C@@H](Cc4ccccc4C(F)(F)F)C(=O)N[C@@H](Cc4csc5ccccc45)C(=O)N[C@@H](CCC(N)=O)C(=O)N[C@@H](CC(C)C)C(=O)N[C@@H](CC(N)=O)C(N)=O)(C3)NC(=O)[C@H](CC(C)C)NC(=O)[C@H](Cc3ccccc3)NC(=O)[C@H](C)NC(=O)[C@H](C)NC(=O)[C@H](Cc3cccc(C(=O)O)c3)NC(=O)[C@H](CC(=O)O)NC1=O)NC(=O)[C@H](CC(C)(C)C)NC(=O)[C@H](CC(=O)O)NC2=O` (stereo partly drawn) [I-2390, Ac-PL3-Asp-Npg-B5-Asp-3COOHF-Ala-Ala-Phe-Leu-PyrS2-2F3MeF-BztA-Gln-Leu-Asn-NH2], for which the results for the IC50 in experiment [1], in experiment [2] and in experiment [3] were 22 nM, 9100 nM and 1400 nM, respectively.

These data come from patent publication US20240116985A1, “STAPLED PEPTIDES AND METHODS THEREOF” (priority 2020, published 2024).
